From ChEMBL document CHEMBL3734713, “4-Thiazolidinone derivatives as potent antimicrobial agents: microwave-assisted synthesis, biological evaluation and docking studies” (2015)
In brackets after ≈: the same amount, converted by molar mass.

Key:
Aspergillus fumigatus = assay: Antifungal activity against Aspergillus fumigatus ATCC 1022 assessed as growth inhibition after 72 hrs at 28 degC by serial dilution method; assay type: functional; details: for MIC: Aspergillus fumigatus, ATCC 1022, 72 h
Trichoderma viride = assay: Antifungal activity against Trichoderma viride IAM 5061 assessed as growth inhibition after 72 hrs at 28 degC by serial dilution method; assay type: functional; details: for MIC: Trichoderma viride, IAM 5061, 72 h
[1] = biological target: Human immunodeficiency virus type 1 reverse transcriptase (Human immunodeficiency virus 1) (UniProt Q72547); assay: Inhibition of HIV1 reverse transcriptase assessed as residual enzyme activity by measuring reduction in [3H]dTTP incorporation into poly(rA)-oligo(dT) at 4 uM incubated for 15 mins by scintillation counting method relative to control
Aspergillus niger = assay: Antifungal activity against Aspergillus niger ATCC 6275 assessed as growth inhibition after 72 hrs at 28 degC by serial dilution method; assay type: functional; details: for MIC: Aspergillus niger, ATCC 6275, 72 h
Penicillium ochrochloron = assay: Antifungal activity against Penicillium ochrochloron ATCC 9112 assessed as growth inhibition after 72 hrs at 28 degC by serial dilution method; assay type: functional; details: for MIC: Penicillium ochrochloron, ATCC 9112, 72 h
Talaromyces funiculosus = assay: Antifungal activity against Penicillium funiculosum ATCC 36839 assessed as growth inhibition after 72 hrs at 28 degC by serial dilution method; assay type: functional; details: for MIC: Talaromyces funiculosus, ATCC 36839, 72 h
Listeria monocytogenes = assay: Antibacterial activity against Listeria monocytogenes NCTC 7973 assessed as growth inhibition after 24 hrs at 37 degC by iodonitrotetrazolium chloride staining based microdilution broth assay; assay type: functional; details: NCTC 7973, 24 h
Bacillus cereus = assay: Antibacterial activity against clinical isolates of Bacillus cereus assessed as growth inhibition after 24 hrs at 37 degC by iodonitrotetrazolium chloride staining based microdilution broth assay; assay type: functional
Escherichia coli = assay: Antibacterial activity against Escherichia coli ATCC 35210 assessed as growth inhibition after 24 hrs at 37 degC by iodonitrotetrazolium chloride staining based microdilution broth assay; assay type: functional; details: ATCC 35210, 24 h
Aspergillus ochraceus = assay: Antifungal activity against Aspergillus ochraceus ATCC 12066 assessed as growth inhibition after 72 hrs at 28 degC by serial dilution method; assay type: functional; details: for MIC: Aspergillus ochraceus, ATCC 12066, 72 h
Staphylococcus aureus = assay: Antibacterial activity against Staphylococcus aureus ATCC 6538 assessed as growth inhibition after 24 hrs at 37 degC by iodonitrotetrazolium chloride staining based microdilution broth assay; assay type: functional; details: ATCC 6538, 24 h
Aspergillus versicolor = assay: Antifungal activity against Aspergillus versicolor ATCC 11730 assessed as growth inhibition after 72 hrs at 28 degC by serial dilution method; assay type: functional; details: for MIC: Aspergillus versicolor, ATCC 11730, 72 h
Micrococcus flavus = assay: Antibacterial activity against Micrococcus flavus ATCC 10240 assessed as growth inhibition after 24 hrs at 37 degC by iodonitrotetrazolium chloride staining based microdilution broth assay; assay type: functional; details: ATCC 10240, 24 h
Enterobacter cloacae = assay: Antibacterial activity against human isolate of Enterobacter cloacae assessed as growth inhibition after 24 hrs at 37 degC by iodonitrotetrazolium chloride staining based microdilution broth assay; assay type: functional
Pseudomonas aeruginosa = assay: Antibacterial activity against Pseudomonas aeruginosa ATCC 27853 assessed as growth inhibition after 24 hrs at 37 degC by iodonitrotetrazolium chloride staining based microdilution broth assay; assay type: functional; details: ATCC 27853, 24 h
Candida albicans = assay: Antifungal activity against Candida albicans ATCC 10231 assessed as growth inhibition after 72 hrs at 28 degC by serial dilution method; assay type: functional; details: for MIC: Candida albicans, ATCC 10231, 72 h
Salmonella typhimurium = assay: Antibacterial activity against Salmonella typhimurium ATCC 13311 assessed as growth inhibition after 24 hrs at 37 degC by iodonitrotetrazolium chloride staining based microdilution broth assay; assay type: functional, Salmonella enterica subsp. enterica serovar Typhimurium; details: Salmonella enterica, ATCC 13311, 24 h

## O=C1CSC(c2c(Cl)cccc2Cl)N1c1nc(C23CC4CC(CC(C4)C2)C3)cs1 (stereo not drawn)
Aspergillus fumigatus
  MFC99.5: 53.71 ×10⁻² umol/ml
  MIC: 215 µM (≈ 100 µg/mL)
Trichoderma viride
  MFC99.5: 21.48 ×10⁻² umol/ml
  MIC: 215 µM (≈ 100 µg/mL)
[1]
  Activity: 52.5%
Aspergillus niger
  MFC99.5: 32.22 ×10⁻² umol/ml
  MIC: 215 µM (≈ 100 µg/mL)
Penicillium ochrochloron
  MFC99.5: 32.22 ×10⁻² umol/ml
  MIC: 215 µM (≈ 100 µg/mL)
Talaromyces funiculosus
  MFC99.5: 53.71 ×10⁻² umol/ml
  MIC: 215 µM (≈ 100 µg/mL)
Listeria monocytogenes
  MBC: 860 µM (≈ 400 µg/mL)
  MIC: 430 µM (≈ 200 µg/mL)
Bacillus cereus
  MBC: 645 µM (≈ 300 µg/mL)
  MIC: 430 µM (≈ 200 µg/mL)
Escherichia coli
  MBC: 430 µM (≈ 200 µg/mL)
  MIC: 215 µM (≈ 100 µg/mL)
Aspergillus ochraceus
  MFC99.5: 53.71 ×10⁻² umol/ml
  MIC: 107 µM (≈ 50 µg/mL)
Staphylococcus aureus
  MBC: 645 µM (≈ 300 µg/mL)
  MIC: 430 µM (≈ 200 µg/mL)
Aspergillus versicolor
  MFC99.5: 32.22 ×10⁻² umol/ml
  MIC: 215 µM (≈ 100 µg/mL)
Micrococcus flavus
  MBC: 430 µM (≈ 200 µg/mL)
  MIC: 215 µM (≈ 100 µg/mL)
Enterobacter cloacae
  MBC: 430 µM (≈ 200 µg/mL)
  MIC: 430 µM (≈ 200 µg/mL)
Pseudomonas aeruginosa
  MBC: 645 µM (≈ 300 µg/mL)
  MIC: 430 µM (≈ 200 µg/mL)
Candida albicans
  MFC99.5: 64.45 ×10⁻² umol/ml
  MIC: 430 µM (≈ 200 µg/mL)
Salmonella typhimurium
  MBC: 430 µM (≈ 200 µg/mL)
  MIC: 215 µM (≈ 100 µg/mL)

## c1ccc(-c2ccc(C(c3ccccc3)n3ccnc3)cc2)cc1 (stereo not drawn) [BIFONAZOLE]
Aspergillus fumigatus
  MFC99.5: 64 ×10⁻² umol/ml
  MIC: 480 µM (≈ 149 µg/mL)
Trichoderma viride
  MFC99.5: 80 ×10⁻² umol/ml
  MIC: 640 µM (≈ 199 µg/mL)
Aspergillus niger
  MFC99.5: 64 ×10⁻² umol/ml
  MIC: 480 µM (≈ 149 µg/mL)
Penicillium ochrochloron
  MFC99.5: 64 ×10⁻² umol/ml
  MIC: 480 µM (≈ 149 µg/mL)
Talaromyces funiculosus
  MFC99.5: 80 ×10⁻² umol/ml
  MIC: 640 µM (≈ 199 µg/mL)
Aspergillus ochraceus
  MFC99.5: 80 ×10⁻² umol/ml
  MIC: 480 µM (≈ 149 µg/mL)
Aspergillus versicolor
  MFC99.5: 64 ×10⁻² umol/ml
  MIC: 320 µM (≈ 99.3 µg/mL)
Candida albicans
  MFC99.5: 48 ×10⁻² umol/ml
  MIC: 320 µM (≈ 99.3 µg/mL)

## CN[C@@H]1[C@H](O[C@H]2[C@H](O[C@H]3[C@H](O)[C@@H](O)[C@H](N=C(N)N)[C@@H](O)[C@@H]3N=C(N)N)O[C@@H](C)[C@]2(O)C=O)O[C@@H](CO)[C@H](O)[C@H]1O [STREPTOMYCIN]
Listeria monocytogenes
  MBC: 516 µM (≈ 300 µg/mL)
  MIC: 258 µM (≈ 150 µg/mL)
Bacillus cereus
  MBC: 86 µM (≈ 50 µg/mL)
  MIC: 43 µM (≈ 25 µg/mL)
Escherichia coli
  MBC: 344 µM (≈ 200 µg/mL)
  MIC: 172 µM (≈ 100 µg/mL)
Staphylococcus aureus
  MBC: 344 µM (≈ 200 µg/mL)
  MIC: 172 µM (≈ 100 µg/mL)
Micrococcus flavus
  MBC: 172 µM (≈ 100 µg/mL)
  MIC: 86 µM (≈ 50 µg/mL)
Enterobacter cloacae
  MBC: 86 µM (≈ 50 µg/mL)
  MIC: 43 µM (≈ 25 µg/mL)
Pseudomonas aeruginosa
  MBC: 344 µM (≈ 200 µg/mL)
  MIC: 272 µM (≈ 158 µg/mL)
Salmonella typhimurium
  MBC: 344 µM (≈ 200 µg/mL)
  MIC: 172 µM (≈ 100 µg/mL)

## O=C1CSC(c2cccc(Cl)c2Cl)N1c1nc(C23CC4CC(CC(C4)C2)C3)cs1 (stereo not drawn)
Aspergillus fumigatus
  MFC99.5: 0.06 ×10⁻² umol/ml
  MIC: 0.42 µM (≈ 0.195 µg/mL)
Trichoderma viride
  MFC99.5: 0.06 ×10⁻² umol/ml
  MIC: 0.21 µM (≈ 0.0977 µg/mL)
[1]
  Activity: 100%
Aspergillus niger
  MFC99.5: 0.06 ×10⁻² umol/ml
  MIC: 0.21 µM (≈ 0.0977 µg/mL)
Penicillium ochrochloron
  MFC99.5: 0.06 ×10⁻² umol/ml
  MIC: 0.21 µM (≈ 0.0977 µg/mL)
Talaromyces funiculosus
  MFC99.5: 0.06 ×10⁻² umol/ml
  MIC: 0.42 µM (≈ 0.195 µg/mL)
Listeria monocytogenes
  MBC: 125 µM (≈ 58.2 µg/mL)
  MIC: 62.5 µM (≈ 29.1 µg/mL)
Bacillus cereus
  MBC: 62.5 µM (≈ 29.1 µg/mL)
  MIC: 30.6 µM (≈ 14.2 µg/mL)
Escherichia coli
  MBC: 125 µM (≈ 58.2 µg/mL)
  MIC: 62.5 µM (≈ 29.1 µg/mL)
Aspergillus ochraceus
  MFC99.5: 0.06 ×10⁻² umol/ml
  MIC: 0.42 µM (≈ 0.195 µg/mL)
Staphylococcus aureus
  MBC: 15.3 µM (≈ 7.12 µg/mL)
  MIC: 9 µM (≈ 4.19 µg/mL)
Aspergillus versicolor
  MFC99.5: 0.06 ×10⁻² umol/ml
  MIC: 0.21 µM (≈ 0.0977 µg/mL)
Micrococcus flavus
  MBC: 62.5 µM (≈ 29.1 µg/mL)
  MIC: 30.6 µM (≈ 14.2 µg/mL)
Enterobacter cloacae
  MBC: 62.5 µM (≈ 29.1 µg/mL)
  MIC: 30.6 µM (≈ 14.2 µg/mL)
Pseudomonas aeruginosa
  MBC: 62.5 µM (≈ 29.1 µg/mL)
  MIC: 15.3 µM (≈ 7.12 µg/mL)
Candida albicans
  MFC99.5: 1.075 ×10⁻² umol/ml
  MIC: 5.3 µM (≈ 2.47 µg/mL)
Salmonella typhimurium
  MBC: 62.5 µM (≈ 29.1 µg/mL)
  MIC: 15.3 µM (≈ 7.12 µg/mL)
